In patent US10988451B2, “MCL-1 inhibitors” (Gilead Sciences, Inc., priority 2018, dated 2021):

target: MCL-1/Bim (Homo sapiens (Human), UniProt Q07820); assay: MCL-1/Bim Binding AlphaLISA Assay; conditions: 6xHis-Mcl-1 (171-327) and biotinylated Bim peptide (51-76)
Description: MCL-1/Bim Binding AlphaLISA Assay.
Inhibition of the MCL-1 and Bim interaction was measured in the following AlphaLISA assay.
Recombinant human MCL-1 protein (C-terminal 6×His Tagged Mcl-1 containing residues 171-327) was generated at Gilead Sciences, Inc. (Foster City, Calif.). A biotinylated peptide derived from human Bim (residues 51-76) was purchased from CPC Scientific (Sunnyvale, Calif.). (CPC 834113). AlphaLISA anti-6His-acceptor beads (AL128R), AlphaScreen Streptavidin donor beads (6760002B), and Proxiplate-384 Plus (6008289) were purchased from PerkinElmer.
The AlphaLISA assay was performed in a 384-well Proxiplate in a total volume of 40 μL. The reaction mixture contained 0.0625 nM 6× His-Mcl-1 (171-327), 0.0625 nM biotinylated-Bim peptide, 10 μg/mL AlphaLISA anti-6×His-AlphaLISA acceptor beads, 40 μg/mL AlphaScreen streptavidin donor beads, and serially diluted test compounds in the binding buffer (20 mM Hepes, pH 7.5 (Teknova H1035); 150 mM NaCl (Promega V4221); 0.002% Brij 35 (Thermo Scientific 20150); 1 mM Dithiothreitol (DTT) Solution (Affymetrix 70726); 0.01% BSA (BioLabs B9000S)). 1,000× test compounds were pre-spotted onto 384-well Proxiplate (Labcyte Echo) by Echo 555 Liquid Handler (Labcyte Inc., San Jose, Calif.) followed by incubation of 5 μl Mcl-1(171-327) for 1 hour. Then 5 μL Bim (51-76) was added and incubated for 2 hours. Five μL AlphaLISA anti-6His-AlphaLISA acceptor beads were then added for 1 hour followed by addition of 5 μL AlphaScreen streptavidin donor beads for 1 hour. The reaction plates were then read on an Envision multimode reader (PerkinElmer) using AlphaScreen settings. […] Percent inhibition was calculated as shown below: % Inhibition=100%*(Well−Neg)/(Pos−Neg) Neg: negative control, DMSO Pos: positive control, no Mcl-1 protein, no biotinylated-Bim peptide

Sequence of MCL-1/Bim (Q07820 171-327): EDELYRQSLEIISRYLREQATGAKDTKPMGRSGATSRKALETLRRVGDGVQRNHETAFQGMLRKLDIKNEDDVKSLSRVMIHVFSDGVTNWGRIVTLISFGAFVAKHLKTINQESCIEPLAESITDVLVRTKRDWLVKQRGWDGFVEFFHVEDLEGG

Row | SMILES | IC50 [nM]
1 | CCNC(=O)N[S@@]1(=O)=NC(=O)c2ccc3c(c2)N(C[C@@H]2CC[C@H]2[C@@H](OC)CCCCC1)C[C@@]1(CCCc2cc(Cl)ccc21)CO3 [Example 14] | 0.3
2 | CO[C@H]1/C=C/C[C@H](C)C[S@@](=O)(NC(=O)C2CC(OC(F)F)C2)=NC(=O)c2ccc3c(c2)N(C[C@@H]2CC[C@H]21)C[C@@]1(CCCc2cc(Cl)ccc21)CO3 (stereo partly drawn) [Example 431] | 0.121
3 | CCOC(=O)N[S@]1(=O)=NC(=O)c2ccc3c(c2)N(C[C@@H]2CC[C@H]2[C@@H](OC)/C=C/CCC1)C[C@@]1(CCCc2cc(Cl)ccc21)CO3 [Example 9] | 6.6
4 | COc1nn(C)cc1C(=O)N[S@@]1(=O)=NC(=O)c2ccc3c(c2)N(C[C@@H]2CC[C@H]2[C@@H](O)/C=C/[C@H](O)[C@H](C)C1)C[C@@]1(CCCc2cc(Cl)ccc21)CO3 [Example 279] | 0.041
5 | CO[C@H]1/C=C/CCCS(=O)(NC(=O)CCN(C)C)=NC(=O)c2ccc3c(c2)N(C[C@@H]2CC[C@H]21)C[C@@]1(CCCc2cc(Cl)ccc21)CO3 (stereo partly drawn) [Example 15] | 7.4
6 | CCC(=O)NS1(=O)=NC(=O)c2ccc3c(c2)N(C[C@@H]2CC[C@H]2[C@@H](OC)/C=C/CCC1)C[C@@]1(CCCc2cc(Cl)ccc21)CO3 (single isomer, unassigned) [Example 4] | 0.7
7 | CO[C@H]1/C=C/CCC[S@@](N)(=O)=NC(=O)c2ccc3c(c2)N(C[C@@H]2CC[C@H]21)C[C@@]1(CCCc2cc(Cl)ccc21)CO3 [Example 5] | 60.2
8 | CCC(=O)N[S@@]1(=O)=NC(=O)c2ccc3c(c2)N(C[C@@H]2CC[C@H]2[C@@H](OC)CCCCC1)C[C@@]1(CCCc2cc(Cl)ccc21)CO3 [Example 11] | 6.5
9 | CCC(=O)N[S@@]1(=O)=NC(=O)c2ccc3c(c2)N(C[C@@H]2CC[C@H]2[C@@H](OC)CCCCC1)C[C@@]1(CCCc2ccccc21)CO3 [Example 16] | 4.2
10 | CCC(=O)N[S@@]1(=O)=NC(=O)c2ccc3c(c2)N(C[C@@H]2CC[C@H]2[C@@H](O)/C=C/CCC1)C[C@@]1(CCCc2cc(Cl)ccc21)CO3 [Example 62] | 0.4
11 | CCC(=O)N[S@]1(=O)=NC(=O)c2ccc3c(c2)N(C[C@@H]2CC[C@H]2[C@@H](OC)/C=C/CCC1)C[C@@]1(CCCc2cc(Cl)ccc21)CO3 [Example 3] | 4.1
12 | CCNC(=O)N[S@@]1(=O)=NC(=O)c2ccc3c(c2)N(C[C@@H]2CC[C@H]2[C@@H](OC)CCCCC1)C[C@@]1(CCCc2cc(Cl)ccc21)CO3 [Example 13] | 1.8
13 | CO[C@H]1/C=C/C[C@H](C)C[S@@](=O)(NC(=O)NCC2CC2)=NC(=O)c2ccc3c(c2)N(C[C@@H]2CC[C@H]21)C[C@@]1(CCCc2cc(Cl)ccc21)CO3 [Example 107] | 0.1
14 | CCC(=O)N[S@]1(=O)=NC(=O)c2ccc3c(c2)N(C[C@@H]2CC[C@H]2[C@@H](O)/C=C/CCC1)C[C@@]1(CCCc2cc(Cl)ccc21)CO3 [Example 63] | 1.4
15 | CCC(=O)N[S@]1(=O)=NC(=O)c2ccc3c(c2)N(C[C@@H]2CC[C@H]2[C@@H](OC)/C=C/CCCC1)C[C@@]1(CCCc2cc(Cl)ccc21)CO3 [Example 69] | 4
16 | CCOC(=O)NS1(=O)=NC(=O)c2ccc3c(c2)N(C[C@@H]2CC[C@H]2[C@@H](OC)/C=C/CCC1)C[C@@]1(CCCc2cc(Cl)ccc21)CO3 (single isomer, unassigned) [Example 10] | 3.6

system: SKBR3 cells; assay: SKBR3 Cell Viability Assay; assay type: cell-based; conditions: 72 hours, CellTiter Glo, read-out: MCL-1 CV SKBR3 EC50
Description: SKBR3 Cell Viability Assay Materials
SKBR3 Cells (ATCC HTB-30) were obtained from ATCC (Manassas, Va.) and cultured in McCoy 5A's medium (ATCC 30-2007)+10% fetal bovine serum (SH30071.03, HyClone, Pittsburgh, Pa.) plus 1× Penicillin-Streptomycin L-glutamine (Corning 30-009-C1, Corning, N.Y.)).
The cell viability assay was conducted in a 384-well tissue culture plate (Grenier 781086, Monroe, N.C.) in a total volume of 70 μL. Test compounds were prepared in 1,000×, serially diluted, and pre-spotted into 384-well tissue culture plate by Echo 555 Liquid Handler (Labcyte Inc., San Jose, Calif.). Seventy μ1 of 6,000 SKBR3 cells were dispensed into each well of the plate and incubated at 37° C. with 5% CO2 for 72 hours. At the end of incubation, 2× CellTiter Glo (CTG) reagents (1 part buffer with 2 parts substrate) (Promega, Madison, Wis.) were prepared, and the plate and the reagent were equilibrated to room temperature for 30 minutes. CTG reagent was added to each plate by Biomek FX at 20 μL/well with 5 times pipetting and mixing to induce cell lysis. Luminescence was read by Envision multimode reader (PerkinElmer). […] Percent inhibition was calculated as followed: % Inhibition=100%*(Well−Neg)/(Pos−Neg) Neg, negative control, DMSO Pos, positive control, 10 μM Puromycin

Row | SMILES | EC50 [nM]
17 | CO[C@H]1/C=C/CCC[S@@](=O)(NC(=O)CC2CC2)=NC(=O)c2ccc3c(c2)N(C[C@@H]2CC[C@H]21)C[C@@]1(CCCc2cc(Cl)ccc21)CO3 [Example 21] | 1300
18 | CO[C@H]1/C=C/CCC[S@@](=O)(NC(=O)CCS(C)(=O)=O)=NC(=O)c2ccc3c(c2)N(C[C@@H]2CC[C@H]21)C[C@@]1(CCCc2cc(Cl)ccc21)CO3 [Example 28] | 8410
19 | CO[C@H]1/C=C/C[C@H](C)C[S@@](=O)(NC(=O)N2C[C@@H](OC)[C@@H]2C)=NC(=O)c2ccc3c(c2)N(C[C@@H]2CC[C@H]21)C[C@@]1(CCCc2cc(Cl)ccc21)CO3 [Example 253] | 39.2
20 | CO[C@H]1/C=C/C[C@H](C)C[S@@](=O)(NC(=O)c2cn(C)nc2OCCN2CCOCC2)=NC(=O)c2ccc3c(c2)N(C[C@@H]2CC[C@H]21)C[C@@]1(CCCc2cc(Cl)ccc21)CO3 [Example 319] | 19.9
21 | COC1CCn2cc(C(=O)N[S@@]3(=O)=NC(=O)c4ccc5c(c4)N(C[C@@H]4CC[C@H]4[C@@H](OC)/C=C/C[C@H](C)C3)C[C@@]3(CCCc4cc(Cl)ccc43)CO5)cc2C1 (stereo partly drawn) [Example 175] | 33.9
22 | CO[C@H]1/C=C/C[C@H](C)C[S@@](=O)(NC(=O)N2CC(OC(=O)N(C)C)C2)=NC(=O)c2ccc3c(c2)N(C[C@@H]2CC[C@H]21)C[C@@]1(CCCc2cc(Cl)ccc21)CO3 [Example 292] | 45.1
23 | COc1ccc(C(=O)N[S@@]2(=O)=NC(=O)c3ccc4c(c3)N(C[C@@H]3CC[C@H]3[C@@H](OC)/C=C/C[C@H](C)C2)C[C@@]2(CCCc3cc(Cl)ccc32)CO4)cc1 [Example 273] | 81
24 | CO[C@H]1/C=C/CCC[S@@](=O)(NC(=O)C2CCC2)=NC(=O)c2ccc3c(c2)N(C[C@@H]2CC[C@H]21)C[C@@]1(CCCc2cc(Cl)ccc21)CO3 [Example 31] | 2590
25 | CO[C@H]1/C=C/C[C@H](C)C[S@@](=O)(NC(=O)c2cc3n(c2)CCc2c-3cnn2C)=NC(=O)c2ccc3c(c2)N(C[C@@H]2CC[C@H]21)C[C@@]1(CCCc2cc(Cl)ccc21)CO3 [Example 208] | 45
26 | COC1CN(C(=O)N[S@@]2(=O)=NC(=O)c3ccc4c(c3)N(C[C@@H]3CC[C@H]3[C@@H](O)/C=C/C[C@H](C)C2)C[C@@]2(CCCc3cc(Cl)ccc32)CO4)C1 [Example 266] | 53.8
27 | CO[C@H]1/C=C/CCC[S@@](=O)(NC(=O)CC(F)(F)F)=NC(=O)c2ccc3c(c2)N(C[C@@H]2CC[C@H]21)C[C@@]1(CCCc2cc(Cl)ccc21)CO3 [Example 23] | 1450
28 | CO[C@H]1/C=C/CCC[S@@](=O)(NC(=O)Cc2ccnn2C)=NC(=O)c2ccc3c(c2)N(C[C@@H]2CC[C@H]21)C[C@@]1(CCCc2cc(Cl)ccc21)CO3 [Example 29] | 1840
29 | CO[C@H]1/C=C/CCC[S@@](=O)(NC(=O)C2COC2)=NC(=O)c2ccc3c(c2)N(C[C@@H]2CC[C@H]21)C[C@@]1(CCCc2cc(Cl)ccc21)CO3 [Example 24] | 891
30 | CO[C@H]1/C=C/CCC[S@@](=O)(NC(=O)Cc2ncccn2)=NC(=O)c2ccc3c(c2)N(C[C@@H]2CC[C@H]21)C[C@@]1(CCCc2cc(Cl)ccc21)CO3 [Example 30] | 1840
31 | CO[C@H]1/C=C\C[C@H](C)[C@@H](C)[S@@](=O)(NC(=O)COC2CCOCC2)=NC(=O)c2ccc3c(c2)N(C[C@@H]2CC[C@H]21)C[C@@]1(CCCc2cc(Cl)ccc21)CO3 [Example 406] | 332
32 | CO[C@H]1/C=C/CCC[S@@](=O)(NC(=O)C2CC2)=NC(=O)c2ccc3c(c2)N(C[C@@H]2CC[C@H]21)C[C@@]1(CCCc2cc(Cl)ccc21)CO3 [Example 27] | 2080

same assay, conditions: Homo sapiens, SK-BR-3, 72 h, CellTiter Glo, read-out: MCL-1 CV SKBR3 EC50

Row | SMILES | EC50 [nM]
33 | CO[C@H]1/C=C/CCCS(=O)(NC(=O)CCN(C)C)=NC(=O)c2ccc3c(c2)N(C[C@@H]2CC[C@H]21)C[C@@]1(CCCc2cc(Cl)ccc21)CO3 (stereo partly drawn) [Example 15] | 7730
34 | CO[C@H]1/C=C/C[C@H](C)C[S@@](=O)(NC(=O)c2cc3n(c2F)CCOC3)=NC(=O)c2ccc3c(c2)N(C[C@@H]2CC[C@H]21)C[C@@]1(CCCc2cc(Cl)ccc21)CO3 [Example 174] | 103
35 | COc1nn(C)cc1C(=O)NS1(=O)=NC(=O)c2ccc3c(c2)N(C[C@@H]2CC[C@H]2[C@@H](OC)/C=C/C[C@H](C)C1)C[C@@]1(CCCc2cc(Cl)ccc21)CO3 (single isomer, unassigned) [Example 388] | 1400
36 | COc1nn(C)cc1C(=O)N[S@@]1(=O)=NC(=O)c2ccc3c(c2)N(C[C@@H]2CC[C@H]2[C@@H](OC)/C=C/C[C@H](C)C1)C[C@@]1(CCCc2cc(Cl)ccc21)CO3 [Example 154] | 24.1
